These are literature values, as cited in patent publication US20060093571A1, “Hair and skin protecting compositions based on esters or ethers of betulin” (priority 2004, published 2006).

One data set concerns the target T1, elastase (Homo sapiens, UniProt P08246).
T1 sequence (P08246 30-247 limits assumed): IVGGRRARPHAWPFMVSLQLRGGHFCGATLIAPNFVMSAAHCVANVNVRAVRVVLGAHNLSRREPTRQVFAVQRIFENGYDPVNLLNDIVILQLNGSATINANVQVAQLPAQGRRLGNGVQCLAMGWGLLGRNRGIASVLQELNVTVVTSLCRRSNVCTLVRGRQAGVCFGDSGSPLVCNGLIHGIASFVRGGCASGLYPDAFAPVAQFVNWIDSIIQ
The following applies: known from literature.

As for `C=C(C)[C@@H]1CC[C@]2(CO)CC[C@]3(C)[C@H](CC[C@@H]4[C@@]5(C)CC[C@H](O)C(C)(C)[C@@H]5CC[C@]43C)[C@@H]12` [Betulin], the “solubility in polar and non-polar solvents” value is “poor solubility”. Besides, the “inhibition of enzymatic activity of elastase” value (from here on “inhibition”) at elastase was “inhibit”.

With `C=C(C)[C@@H]1CC[C@]2(C(=O)O)CC[C@]3(C)[C@H](CC[C@@H]4[C@@]5(C)CC[C@H](O)C(C)(C)[C@@H]5CC[C@]43C)[C@@H]12` [betulinic acid], the “solubility in polar and non-polar solvents” value is reported as “poor solubility”.

Take `CC1(C)CC[C@]2(C(=O)O)CC[C@]3(C)C(=CC[C@@H]4[C@@]5(C)CC[C@H](O)C(C)(C)[C@@H]5CC[C@]43C)[C@@H]2C1` [oleanolic acid]: the “solubility in polar and non-polar solvents” value is recorded as “poor solubility”. For the same compound, the “inhibition” value at elastase is “inhibit”.

In the case of `C[C@H]1[C@H](C)CC[C@]2(C(=O)O)CC[C@]3(C)C(=CC[C@@H]4[C@@]5(C)CC[C@H](O)C(C)(C)[C@@H]5CC[C@]43C)[C@H]12` [ursolic acid], the “solubility in polar and non-polar solvents” value is listed as “poor solubility”. For the same compound, the “inhibition” value on elastase is given as “inhibit”.
